According to PubChem BioAssay AID1794818:
The source made the active and inactive calls.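 The calls were made as follows: active = dose-dependent response absent in non-induced cells, with a sigmoidal fit giving a valid half-maximal concentration; inactive = the rest.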

Molecular target: Chromaffin granule amine transporter (Homo sapiens) (UniProt P54219)
Experiment: VMAT1 monoamine transport blockade – FFN206 fluorescent substrate, HEK-293 overexpressing cells, dose response (AID 1794818)
Conditions: HEK-293 SLC18A1 OE, FFN206 uptake fluorescence

Chromaffin granule amine transporter (Homo sapiens), sequence (P54219 whole entry, looked up): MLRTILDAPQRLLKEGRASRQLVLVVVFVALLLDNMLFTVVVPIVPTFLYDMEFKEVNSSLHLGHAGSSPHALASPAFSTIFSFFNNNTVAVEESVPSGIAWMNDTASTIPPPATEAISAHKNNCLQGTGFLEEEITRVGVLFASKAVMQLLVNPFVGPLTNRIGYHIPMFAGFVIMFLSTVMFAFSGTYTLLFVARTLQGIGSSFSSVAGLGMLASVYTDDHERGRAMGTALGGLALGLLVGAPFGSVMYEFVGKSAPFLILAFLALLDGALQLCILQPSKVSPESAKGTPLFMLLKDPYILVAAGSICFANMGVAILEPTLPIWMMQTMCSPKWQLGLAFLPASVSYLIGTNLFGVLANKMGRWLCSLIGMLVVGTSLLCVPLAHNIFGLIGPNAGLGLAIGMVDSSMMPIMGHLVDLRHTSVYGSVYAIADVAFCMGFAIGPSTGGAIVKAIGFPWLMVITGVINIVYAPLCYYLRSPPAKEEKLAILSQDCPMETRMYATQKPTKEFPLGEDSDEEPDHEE

SMILES | outcome | IC50 [µM]
COc1cc2c(cc1OC)C1CC(=O)C(CC(C)C)CN1CC2 (stereo not drawn) | inactive | 
CNc1ccc2c(CCN)cc(=O)oc2c1 |  | 2
COC(=O)[C@H]1[C@H]2C[C@@H]3c4[nH]c5cc(OC)ccc5c4CCN3C[C@H]2C[C@@H](OC(=O)c2cc(OC)c(OC)c(OC)c2)[C@@H]1OC |  | 0.05
